Consider 16 compounds from PubChem BioAssay AID330 (DTP/NCI, 2004).

Several values for one entry are separate records, joined by “and”; a condition that tells them apart may be missing. Equal values may be shown once. Toxic doses and inconclusive results are not listed.

For this test, the system named is P388 leukemia ip, CD2F1 mice, survival T/C. In words: NCI In Vivo Anticancer Drug Screen. Data for tumor model P388 Leukemia (intraperitoneal) in CD2F1 (CDF1) mice. The note with it: endpoint: median survival time, higher = longer survival. The procedure, abridged:
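Mice carrying the transplanted tumor received test compound or vehicle. Survival was recorded in each group, and the value is the treated-group measurement divided by that of the vehicle-treated control group.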

Setting [1] is: dose: 50.0 mg/kg/injection, schedule: Q01DX009 (ip), vehicle: Klucel (hydroxypropylcellulose) (HPC).
The mark [2] stands for this setting: dose: 100.0 mg/kg/injection, schedule: Q01DX009 (ip), vehicle: Klucel (hydroxypropylcellulose) (HPC).
The mark [3] stands for this setting: dose: 200.0 mg/kg/injection, schedule: Q01DX001 (ip), vehicle: Klucel (hydroxypropylcellulose) (HPC).
Setting [4] is: dose: 400.0 mg/kg/injection, schedule: Q01DX001 (ip), vehicle: Klucel (hydroxypropylcellulose) (HPC).
[5] abbreviates: dose: 100.0 mg/kg/injection, schedule: Q04DX003 (ip), vehicle: saline.
The mark [6] stands for this setting: dose: 200.0 mg/kg/injection, schedule: Q04DX003 (ip), vehicle: saline.
[7] abbreviates: dose: 400.0 mg/kg/injection, schedule: Q04DX003 (ip), vehicle: saline.

Take `CC(=O)OCc1cc(=O)n(C)c2c3c4c(cc12)c(C)cc(=O)n4CO3`: the T/C runs as follows: (dose: 12.5 mg/kg/injection, schedule: Q01DX009 (ip), vehicle: Klucel (hydroxypropylcellulose) (HPC)) 123 % of control; (dose: 25.0 mg/kg/injection, schedule: Q03HX015 (ip), vehicle: Klucel (hydroxypropylcellulose) (HPC)) 173 % of control; (dose: 25.0 mg/kg/injection, schedule: Q04DX002 (ip), vehicle: Klucel (hydroxypropylcellulose) (HPC)) 121 % of control; (dose: 25.0 mg/kg/injection, schedule: Q06HX010 (ip), vehicle: Klucel (hydroxypropylcellulose) (HPC)) 152 % of control; (dose: 50.0 mg/kg/injection, schedule: Q01DX001 (ip), vehicle: Klucel (hydroxypropylcellulose) (HPC)) 119 % of control and 124 % of control; under setting [1], 157 % of control. Moreover, the T/C (dose: 50.0 mg/kg/injection, schedule: Q06HX010 (ip), vehicle: Klucel (hydroxypropylcellulose) (HPC)) was 105 % of control; the T/C under setting [2] was 86 % of control; the T/C under setting [3] was 155 % of control; the T/C (dose: 200.0 mg/kg/injection, schedule: Q04DX002 (ip), vehicle: Klucel (hydroxypropylcellulose) (HPC)) is 168 % of control; the T/C under setting [4] is 157 % of control and 176 % of control; the T/C (dose: 800.0 mg/kg/injection, schedule: Q01DX001 (ip), vehicle: Klucel (hydroxypropylcellulose) (HPC)) was 168 % of control.
Turning to `CCCCOc1ccc(Nc2c(C(=O)OCC)cnc3cc4c(cc23)OCO4)cc1`, the T/C by setting is: (dose: 60.0 mg/kg/injection, schedule: Q01DX005 (ip), vehicle: Klucel (hydroxypropylcellulose) (HPC)) 97 % of control; (dose: 120.0 mg/kg/injection, schedule: Q01DX005 (ip), vehicle: Klucel (hydroxypropylcellulose) (HPC)) 95 % of control; (dose: 240.0 mg/kg/injection, schedule: Q01DX005 (ip), vehicle: Klucel (hydroxypropylcellulose) (HPC)) 97 % of control.
`Cc1c(C#N)sc2ccccc12`: the T/C by setting is: (dose: 25.0 mg/kg/injection, schedule: Q01DX009 (ip), vehicle: other) 96 % of control; (dose: 50.0 mg/kg/injection, schedule: Q01DX009 (ip), vehicle: other) 105 % of control; (dose: 100.0 mg/kg/injection, schedule: Q01DX009 (ip), vehicle: other) 89 % of control.
In the case of `CN(C)c1ccc(C(=O)C(=O)c2ccccc2)cc1`, the T/C (dose: 100.0 mg/kg/injection, schedule: Q04DX003 (ip), vehicle: Klucel (hydroxypropylcellulose) (HPC)) is 106 % of control; the T/C (dose: 200.0 mg/kg/injection, schedule: Q04DX003 (ip), vehicle: Klucel (hydroxypropylcellulose) (HPC)) is 99 % of control; the T/C (dose: 400.0 mg/kg/injection, schedule: Q04DX003 (ip), vehicle: Klucel (hydroxypropylcellulose) (HPC)) is 100 % of control.
For `COc1cc2c(cc1OC)C(Cc1ccc(OC)c(Oc3ccc(CC4c5cc(OC)c(OC)c(O)c5CCN4C)cc3)c1)N(C)CC2` (stereo unspecified), the T/C (dose: 20.0 mg/kg/injection, schedule: Q01DX009 (ip), vehicle: Klucel (hydroxypropylcellulose) (HPC)) was 106 % of control; the T/C (dose: 40.0 mg/kg/injection, schedule: Q01DX009 (ip), vehicle: Klucel (hydroxypropylcellulose) (HPC)) is 107 % of control; the T/C (dose: 80.0 mg/kg/injection, schedule: Q01DX009 (ip), vehicle: Klucel (hydroxypropylcellulose) (HPC)) is 111 % of control.
As for `CCCCCCCCCCCC1NC(=S)NC(=O)C1C#N` (stereo unspecified), the T/C was 95 % of control under setting [1]; 93 % of control under setting [2]; 92 % of control (dose: 200.0 mg/kg/injection, schedule: Q01DX009 (ip), vehicle: Klucel (hydroxypropylcellulose) (HPC)).
On to `CC(C)CC(NC(=O)C(Cc1ccccc1)NC(=O)CNC(=O)CNC(=O)C(N)Cc1ccc(O)cc1)C(=O)O` (stereo unspecified), for which the T/C runs as follows: (dose: 12.5 mg/kg/injection, schedule: Q01DX005 (ip), vehicle: water) 110 % of control; (dose: 25.0 mg/kg/injection, schedule: Q01DX005 (ip), vehicle: water) 103 % of control; (dose: 50.0 mg/kg/injection, schedule: Q01DX005 (ip), vehicle: water) 95 % of control; (dose: 100.0 mg/kg/injection, schedule: Q01DX005 (ip), vehicle: water) 98 % of control; (dose: 200.0 mg/kg/injection, schedule: Q01DX005 (ip), vehicle: water) 100 % of control.
Consider `Cc1ccc(S(=O)(=O)OCCOc2ccc3ccccc3c2-c2c(OCCOc3ccc4ccccc4c3-c3c(OCCOS(=O)(=O)c4ccc(C)cc4)ccc4ccccc34)ccc3ccccc23)cc1`, for which the T/C reads like this: (dose: 100.0 mg/kg/injection, schedule: Q01DX001 (ip), vehicle: saline with Tween-80) 101 % of control; (dose: 200.0 mg/kg/injection, schedule: Q01DX001 (ip), vehicle: saline with Tween-80) 97 % of control; (dose: 400.0 mg/kg/injection, schedule: Q01DX001 (ip), vehicle: saline with Tween-80) 97 % of control.
As for `COc1cccc2c1C(=O)c1c(O)c3c(c(O)c1C2=O)C[C@](O)(C(=O)CO)CC3OC1CC(N)C(OC2CCCCO2)C(C)O1` (stereo partly specified), the T/C runs as follows: (dose: 0.78 mg/kg/injection, schedule: Q04DX003 (ip), vehicle: water) 122 % of control; (dose: 3.12 mg/kg/injection, schedule: Q04DX003 (ip), vehicle: water) 153 % of control and 240 % of control; (dose: 3.13 mg/kg/injection, schedule: Q04DX003 (ip), vehicle: water) 161 % of control; (dose: 3.75 mg/kg/injection, schedule: Q01DX005 (ip), vehicle: water) 154 % of control; (dose: 6.25 mg/kg/injection, schedule: Q04DX003 (ip), vehicle: water) 192 % of control and 200 % of control and 280 % of control; (dose: 7.5 mg/kg/injection, schedule: Q01DX005 (ip), vehicle: water) 151 % of control. Moreover, the T/C was 154 % of control and 416 % of control (dose: 12.5 mg/kg/injection, schedule: Q04DX003 (ip), vehicle: water); 196 % of control (dose: 15.0 mg/kg/injection, schedule: Q01DX005 (ip), vehicle: water); 91 % of control (dose: 25.0 mg/kg/injection, schedule: Q04DX003 (ip), vehicle: water); 87 % of control (dose: 50.0 mg/kg/injection, schedule: Q04DX003 (ip), vehicle: water).
With `COc1ccc(C(=NO)c2ccc(OC)cc2)cc1`, the T/C under setting [5] is 100 % of control, the T/C under setting [6] is 100 % of control and the T/C under setting [7] was 104 % of control.
In the case of `O=C1c2cccc([N+](=O)[O-])c2C(=O)c2c1oc1ccc3ccccc3c21`, the T/C (dose: 50.0 mg/kg/injection, schedule: Q01DX005 (ip), vehicle: Klucel (hydroxypropylcellulose) (HPC)) is 104 % of control; the T/C (dose: 100.0 mg/kg/injection, schedule: Q01DX005 (ip), vehicle: Klucel (hydroxypropylcellulose) (HPC)) was 102 % of control; the T/C (dose: 200.0 mg/kg/injection, schedule: Q01DX005 (ip), vehicle: Klucel (hydroxypropylcellulose) (HPC)) is 96 % of control.
On to `CN(C)[C@@H]1C(=O)C(C(=O)NCNc2nc3n[nH]nc3c(=O)[nH]2)=C(O)[C@@]2(O)C(=O)C3=C(O)c4c(O)cccc4[C@@](C)(O)[C@H]3C[C@@H]12`, for which the T/C (dose: 50.0 mg/kg/injection, schedule: Q04DX003 (ip), vehicle: saline) was 102 % of control; the T/C under setting [5] is 100 % of control; the T/C under setting [6] is 107 % of control; the T/C under setting [7] is 111 % of control.
For `CNC(=S)N(C1CCCCC1)C1CCCCC1`, the T/C runs as follows: (dose: 50.0 mg/kg/injection, schedule: Q01DX009 (ip), vehicle: saline with Tween-80) 103 % of control; (dose: 100.0 mg/kg/injection, schedule: Q01DX009 (ip), vehicle: saline with Tween-80) 105 % of control; (dose: 200.0 mg/kg/injection, schedule: Q01DX009 (ip), vehicle: saline with Tween-80) 100 % of control.
Take `CC(=O)Nc1cccc2c1CCCC2`: the T/C runs as follows: (dose: 50.0 mg/kg/injection, schedule: Q01DX005 (ip), vehicle: saline with Tween-80) 100 % of control; (dose: 100.0 mg/kg/injection, schedule: Q01DX005 (ip), vehicle: saline with Tween-80) 102 % of control; (dose: 200.0 mg/kg/injection, schedule: Q01DX005 (ip), vehicle: saline with Tween-80) 102 % of control.
Regarding `CCC1(c2ccccc2)CCC(C#N)C1=N` (stereo unspecified), the T/C reads like this: (dose: 100.0 mg/kg/injection, schedule: Q01DX001 (ip), vehicle: Klucel (hydroxypropylcellulose) (HPC)) 102 % of control; under setting [3], 100 % of control; under setting [4], 98 % of control.
Take `CC(=O)Oc1ccc(OC(C)=O)c2c(OC(C)=O)c(C3CCC(C)(C)O3)cc(OC(C)=O)c12` (stereo unspecified): the T/C was 106 % of control (dose: 12.5 mg/kg/injection, schedule: Q04DX002 (ip), vehicle: saline with Tween-80) and 118 % of control (dose: 25.0 mg/kg/injection, schedule: Q04DX002 (ip), vehicle: saline with Tween-80).
